Bridge positions count the residues as written; N and C are the ends. Peptide text beside a SMILES is read from it.
Key:
Mouse α1β1γδ nAChR = biological target: T1, Mouse α1β1γδ nAChR (Mus musculus, UniProt P02716+P04756+P09690+P20782); experiment: cell-based
T1 construct: expressed in transfected cells; host or cells: Xenopus oocytes injected with cRNA

GABAB receptors = conditions: cited from earlier work
α9α10 nAChR = conditions: cited from earlier work

T1 sequence (P04756 21-457 limits assumed): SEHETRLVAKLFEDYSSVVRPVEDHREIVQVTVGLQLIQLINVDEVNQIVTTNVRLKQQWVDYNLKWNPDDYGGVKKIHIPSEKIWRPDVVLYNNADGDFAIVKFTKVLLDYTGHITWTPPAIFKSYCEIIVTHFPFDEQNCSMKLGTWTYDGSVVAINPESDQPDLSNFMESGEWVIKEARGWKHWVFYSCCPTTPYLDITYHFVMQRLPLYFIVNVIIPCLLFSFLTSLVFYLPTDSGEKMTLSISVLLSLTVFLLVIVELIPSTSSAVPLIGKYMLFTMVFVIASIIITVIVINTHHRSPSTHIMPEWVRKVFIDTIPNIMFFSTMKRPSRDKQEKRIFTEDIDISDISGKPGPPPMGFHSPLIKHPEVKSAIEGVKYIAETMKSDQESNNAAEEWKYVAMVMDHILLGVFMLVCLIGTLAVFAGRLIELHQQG
T1 sequence (P09690 24-501 partner limits assumed): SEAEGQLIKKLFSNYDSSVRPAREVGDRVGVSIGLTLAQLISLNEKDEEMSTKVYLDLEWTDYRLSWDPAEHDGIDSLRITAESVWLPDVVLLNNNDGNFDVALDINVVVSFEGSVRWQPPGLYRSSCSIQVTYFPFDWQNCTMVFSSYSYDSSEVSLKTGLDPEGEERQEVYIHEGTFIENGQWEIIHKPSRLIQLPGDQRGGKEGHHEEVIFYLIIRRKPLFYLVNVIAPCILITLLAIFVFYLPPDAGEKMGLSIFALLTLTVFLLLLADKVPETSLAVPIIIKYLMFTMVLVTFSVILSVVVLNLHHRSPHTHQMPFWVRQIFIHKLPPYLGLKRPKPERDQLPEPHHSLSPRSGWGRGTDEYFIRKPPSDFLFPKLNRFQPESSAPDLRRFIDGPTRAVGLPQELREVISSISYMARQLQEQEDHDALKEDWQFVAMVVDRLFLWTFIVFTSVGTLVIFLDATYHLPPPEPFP
T1 sequence (P02716 25-520 limits assumed): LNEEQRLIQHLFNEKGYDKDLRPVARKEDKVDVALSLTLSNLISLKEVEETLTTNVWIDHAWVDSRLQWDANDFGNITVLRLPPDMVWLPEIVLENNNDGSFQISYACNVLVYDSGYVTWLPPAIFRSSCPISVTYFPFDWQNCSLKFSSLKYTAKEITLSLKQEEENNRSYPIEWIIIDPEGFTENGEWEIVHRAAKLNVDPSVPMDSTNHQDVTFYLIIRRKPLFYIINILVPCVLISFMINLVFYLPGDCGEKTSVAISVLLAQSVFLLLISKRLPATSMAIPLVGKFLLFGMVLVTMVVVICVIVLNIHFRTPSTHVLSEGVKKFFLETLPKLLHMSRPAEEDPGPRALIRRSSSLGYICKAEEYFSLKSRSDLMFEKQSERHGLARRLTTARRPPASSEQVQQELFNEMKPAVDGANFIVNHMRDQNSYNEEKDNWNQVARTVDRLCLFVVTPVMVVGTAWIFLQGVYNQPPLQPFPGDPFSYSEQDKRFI
T1 sequence (P20782 21-493 limits assumed): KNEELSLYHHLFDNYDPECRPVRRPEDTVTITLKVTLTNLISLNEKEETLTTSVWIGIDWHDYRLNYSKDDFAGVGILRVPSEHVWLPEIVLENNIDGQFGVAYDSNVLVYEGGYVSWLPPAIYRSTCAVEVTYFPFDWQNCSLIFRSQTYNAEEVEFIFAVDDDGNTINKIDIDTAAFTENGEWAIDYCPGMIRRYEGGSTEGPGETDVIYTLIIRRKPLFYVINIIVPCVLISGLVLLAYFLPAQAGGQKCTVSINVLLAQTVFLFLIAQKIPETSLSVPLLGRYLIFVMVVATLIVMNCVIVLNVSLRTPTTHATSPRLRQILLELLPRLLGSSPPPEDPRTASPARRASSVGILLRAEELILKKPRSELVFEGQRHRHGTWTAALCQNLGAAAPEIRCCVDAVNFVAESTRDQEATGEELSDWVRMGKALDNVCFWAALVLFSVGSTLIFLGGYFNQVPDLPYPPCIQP

| Compound | IC50 (Mouse α1β1γδ nAChR) [µM] | activity at GABAB receptors (GABAB receptors) | IC50 (α9α10 nAChR) [µM] |
| --- | --- | --- | --- |
| CC(C)C[C@@H]1NC(=O)[C@@H](NC(=O)[C@H](CCCNC(=N)N)NC(=O)[C@@H](N)C(C)C)CSSC[C@@H](C(=O)N[C@H]2CSSC[C@@H](C(=O)N[C@H](C(=O)N[C@@H](Cc3ccc(O)cc3)C(=O)N[C@@H](Cc3ccc(O)cc3)C(=O)N[C@H](C(=O)N[C@@H](CCC(N)=O)C(=O)N[C@@H](CO)C(=O)N[C@@H](CCCNC(=N)N)C(=O)N[C@@H](CCC(=O)O)C(=O)O)[C@@H](C)O)C(C)C)NC(=O)[C@H](CCCNC(=N)N)NC(=O)[C@H](CO)NC(=O)[C@H](Cc3c[nH]cn3)NC(=O)[C@H](CCCNC(=N)N)NC(=O)[C@H](C)NC(=O)[C@H](Cc3ccccc3)NC(=O)[C@H](CO)NC(=O)[C@@H]3CCCN3C(=O)CNC(=O)[C@H](CCCCN)NC(=O)[C@H](CCC(N)=O)NC2=O)NC(=O)[C@@H]2CCCN2C(=O)[C@@H]2CCCN2C(=O)[C@H](CCCNC(=N)N)NC(=O)[C@H](Cc2ccccc2)NC(=O)[C@H](CC(C)C)NC(=O)[C@H](CCCCN)NC(=O)[C@H](CC(N)=O)NC(=O)[C@@H]2CCCN2C(=O)[C@H](CCC(N)=O)NC(=O)[C@H](C)NC(=O)CNC(=O)[C@H](CO)NC(=O)[C@H](CCCCN)NC(=O)[C@H](CCC(=O)O)NC1=O [αB-VxXXIVA [1], [2]] (H-VRCLEKSGAQPNKLFRPPCCQKGPSFARHSRCVYYTQSRE-OH; disulfide 3-19, 20-32) | 6.6 |  |  |
| α-conotoxin RgIA |  | activate GABAB receptors | 0.019 |
